Source: patent publication US20250121013A1, “USE OF BACILLUS AMYLOLIQUEFACIENS FOR PREVENTING AND TREATING PARKINSON'S DISEASE” (Artugen Therapeutics Ltd., priority 2021, published 2025)

Experiments:
[1] = tested on: MPTP-induced model of PD; test: MPTP-induced mouse model of PD, striatal dopamine and DOPAC (Example 1); type: in vivo
Description: • Route(s) of administration: IP for MPTP (1-Methyl-4-phenyl-1,2,3,6-tetrahydropyridine hydrochloride) and vehicle, PO for ART24 and vehicle (trehalose) • Dose Volume(s): 10 mL/kg for MPTP, 0.1 mL for ART24 • Formulation(s): PBS for MPTP; saline-based formulation for ART24 • Dose Levels: 20 mg/kg for MPTP, for ART24 • Dose Frequency: 4 doses (QD) for MPTP; 11 days BID for ART24 • Study duration: 11 days • Number of Groups: 4 • Number of animals per group: 13 • Total number of animals: 52 (57 animals were enrolled in the study)
MPTP model. MPTP was formulated in phosphate buffered saline (PBS) and administered to mice QD for 4 days at a dose of 20 mg/kg (2 mg/mL delivered as 10 mL/kg).
Neurotransmitter measurements (DA and DOPAC). 10 mice from each were anesthetized and blood collected into K2EDTA tubes by a cardiac puncture. Brains were extracted and dissected. The rostral part was dissected and striata removed. The striata were frozen and subsequently evaluated for levels of dopamine and metabolites.
Striata were homogenized in 0.3M perchloric acid. The resulting supernatant was analyzed for levels of monoamines by reverse phase HPLC-ECD.
Data analysis. Data were analyzed using a two-way repeated measures ANOVA with a post hoc Fisher's LSD multiple comparison test. The raw data were also analyzed for outliers using ROUT method (Q=1%). GraphPad Prism 9 was used for data analysis and presentation.

[2] = tested on: MPTP-induced model of PD; test: Locomotion activity in MPTP zebrafish model (Example 6); type: in vivo; conditions: larvae; MPTP 250 μM 96 to 120 hpf; ART24 4×10^6 CFU/mL in water of MPTP-exposed fish; 50 min alternating dark/light
Description: Zebrafish larvae were dosed with MPTP (250 μM; 96 to 120 hours post fertilization) or sham treated (DMSO only; n=22) in water. ART24 was dosed in water of MPTP-exposed fish (4×10^6 CFU/mL; n=16). Movement was evaluated with an imaging system during 50 min of testing consisting of 10-min periods of alternating darkness/bright light. Data was analyzed by one-way ANOVA followed by a Dunnet test comparing against MPTP treatment.

[3] = MPTP 20 mg/kg IP QD 4 days compared to saline/vehicle treated animals
[4] = compared to saline/MPTP dosed animals, PO BID Day -3 to Day 7, MPTP 20 mg/kg IP QD 4 days, n=10/group

Row | SMILES | DOPAC content in the striatum [1, 3] | dopamine content in the striatum [1, 3] | total motor movement distance [2] | DOPAC concentration in the striatum [1, 4] | dopamine concentration in the striatum [1, 4]
1 | CN1CC=C(c2ccccc2)CC1.Cl [MPTP, 1-Methyl-4-phenyl-1,2,3,6-tetrahydropyridine hydrochloride] | significant depletion | significant depletion | 24 % of sham |  | 
2 | OC[C@H]1O[C@H](O[C@H]2O[C@H](CO)[C@@H](O)[C@H](O)[C@H]2O)[C@H](O)[C@@H](O)[C@@H]1O [trehalose] |  |  |  | did not produce a significant effect | did not produce a significant effect
